From patent US10882835B2 (Imago Biosciences, Inc., priority 2013, dated 2021) come the findings set out here.

The target in one data set is KDM1A (LSD1) (Homo sapiens (Human), UniProt O60341). Put plainly: 10-dose IC50 fluorescence coupling enzyme assay, LSD1 demethylase activity on histone H3(1-21)K4me2 peptide (HRP/Amplex Red). Format: biochemical. To be noted: 10 μM histone H3(1-21)K4me2 peptide substrate.
Data set [1] can be described thus: Metabolic stability in murine liver microsomes. In kind it is in vitro ADME. To be noted: mouse liver microsomes, 2 μM compound, NADPH. As for the experimental part:
The metabolic stability of compounds disclosed herein in pooled human liver microsomes (HLM) and pooled male mouse liver microsomes (MMLM) was determined according to the following protocol, in which the concentrations of compounds in reaction systems were evaluated by LC/MS/MS for estimating the stability in liver microsomes.
Pooled human liver microsomes (HMMCPL; PL050B) and pooled male mouse liver microsomes (MSMCPL; MS033) were purchased from CellzDirect (Invitrogen). Microsomes were stored at −80 C prior to use.
A master solution was prepared containing microsome (stock concentration 5 mg/mL, volume 50 μL, final concentration 0.5 mg/mL), MgCl2 solution (stock concentration 50 mM, volume 50 μL, final concentration 5 mM), phosphate buffer (stock concentration 200 mM, volume 250 μL, final concentration 100 mM), and water (volume […]. Five μL of 200 μM test compounds or control solution (control compound: verapamil) was then added. The final concentration of test compounds or verapamil in the reaction system was 2 μM. The mixture was pre-warmed at 37 C for 5 min.
The reaction was started with the addition of 50 μL of 10 mM NADPH solution at the final concentration of 1 mM and carried out at 37 C. 50 μL of ultra-pure H2O was used instead of NADPH solution in the negative control.
Aliquots of 50 μL were taken from the reaction solution at 0 and 30 min. The reaction was stopped by the addition of 3 volumes of cold methanol with IS (200 nM imipramine, 200 nM labetalol and 2 μM ketoprofen) at the designated time points. Samples were centrifuged at 16,000 g for 10 minutes to precipitate protein. Aliquot of 100 μL of the supernatant was diluted by 100 μL ultra-pure H2O, and the mixture was used for LC/MS/MS analysis. All experiments were performed in duplicate.
Samples were analyzed using liquid chromatography-mass spectrometry. The LC system comprised a Shimadzu liquid chromatograph separation system equipped with degasser DGU-20A3, solvent delivery unit LC-20AD, system controller CBM-20A, column oven CTO-10ASVP and CTC Analytics HTC PAL System. Chromatographic conditions included a Phenomenex column, 5.0μ C18 (2.0×50 mm); a mobile phase of 0.1% formic acid in acetonitrile and 0.1% formic acid in water; an elution rate of 500 μL/min; column temperature 25 C; injection volume 10 μL. Mass spectrometric analysis was performed using an API 4000 instrument from AB Inc. (Canada) with an ESI interface. The data acquisition and control system were created using Analyst 1.5.1 software from ABI Inc. A turbo spray ion source and electrospray ionization were employed in a multiple reaction monitoring (MRM) scan. Additional parameters included: collision gas, 6 L/min; curtain gas, 30 L/min; nebulize gas, 50 L/min; auxiliary gas, 50 L/min; temperature, 500 C; ionspray voltage, +5500 v (positive MRM). Quadripoles Q1 and Q3 were set to 456.2 and 200.2, respectively; declustering potential (DP), entrance potential (EP), and collision cell entrance potential (CE) were set to 120, 10, and 55 v, respectively; collision cell exit potential (CXP) was 12 v.
All calculations were carried out using Microsoft Excel. Peak areas were determined from extracted ion chromatograms. The control compounds were included in the assay. Any value of the compounds that was not within the specified limits was rejected and the experiment was repeated. The reaction system without the cofactors was used to exclude the misleading factor that resulted from instability of chemical itself.
(In general: Microsomes from liver hold many membrane-bound enzymes, among them those of drug oxidation.)

A value given as a limit tells only on which side of the number the result lay.

In general, IC50 refers to the concentration needed to halve the response being measured. Lower therefore signals inhibition by little substance. `O=C(N[C@@H](CCCCN[C@@H]1C[C@H]1c1ccccc1)C(=O)N1CCCC1)c1ccccc1` [Example 1, N—((S)-1-oxo-6-(((1R,2S)-2-phenylcyclopropyl)amino)-1-(pyrrolidin-1-yl)hexan-2-yl)benzamide]: the IC50 at KDM1A (LSD1) was less than 1000 nM.

Consider `O=C(N[C@@H](CCCCN[C@@H]1C[C@H]1c1ccccc1)C(=O)N1CCCCC1)c1ccccc1` [Example 2, N—((S)-1-oxo-6-(((1R,2S)-2-phenylcyclopropyl)amino)-1-(piperidin-1-yl)hexan-2-yl)benzamide], for which the “% at 30 min, MLM” value in data set [1] is reported as “− (− is <20%)”. Moreover, the half-maximal inhibitory concentration (IC50) against KDM1A (LSD1) is less than 1000 nM.

As to `CN1CCN(C(=O)[C@H](CCCCN[C@@H]2C[C@H]2c2ccc(F)cc2)NC(=O)c2ccc(F)cc2)CC1` [Example 3, 4-fluoro-N—((S)-6-(((1R,2S)-2-(4-fluorophenyl)cyclopropyl)amino)-1-(4-methylpiperazin-1-yl)-1-oxohexan-2-yl)benzamide], the “% at 30 min, MLM” value in data set [1] was “+ (+ is ≥20%)”. Further, the IC50 on KDM1A (LSD1) is less than 1000 nM.

As to `CN1CCN(C(=O)[C@H](CCCCN[C@@H]2C[C@H]2c2ccccc2)NC(=O)c2ccccc2)CC1` [Example 4, N—((S)-1-(4-methylpiperazin-1-yl)-1-oxo-6-(((1R,2S)-2-phenylcyclopropyl)amino)hexan-2-yl)benzamide], the “% at 30 min, MLM” value in data set [1] was “+ (+ is ≥20%)”. Besides, the IC50 at KDM1A (LSD1) was less than 1000 nM.

On KDM1A (LSD1), `CCN(CC)C(=O)[C@H](CCCCN[C@@H]1C[C@H]1c1ccccc1)NC(=O)c1ccccc1` [Example 5] yielded a concentration for half-maximal inhibition (IC50) of less than 1000 nM.

In the case of `O=C(N[C@@H](CCCCN[C@@H]1C[C@H]1c1ccccc1)C(=O)N1CCOCC1)c1ccccc1` [Example 6, N—((S)-1-morpholino-1-oxo-6-(((1R,2S)-2-phenylcyclopropyl)amino)hexan-2-yl)benzamide], in data set [1], the “% at 30 min, MLM” value is on record as “+ (+ is ≥20%)”. At KDM1A (LSD1), this compound had a concentration for half-maximal inhibition (IC50) of less than 1000 nM.

With `O=C(N[C@@H](CCCCN[C@@H]1C[C@H]1c1ccc(F)cc1)C(=O)N1CCCCC1)c1ccccn1` [Example 7, N-[(2S)-6-[[(1R,2S)-2-(4-fluorophenyl)cyclopropyl]amino]-1-oxo-1-(piperidin-1-yl)hexan-2-yl]pyridine-2-carboxamide], the “% at 30 min, MLM” value in data set [1] is listed as “− (− is <20%)”. This compound showed an IC50 at KDM1A (LSD1) of less than 1000 nM.

Turning to `C[C@@]1(NCCCC[C@H](NC(=O)c2ccccc2)C(=O)N2CCN(S(C)(=O)=O)CC2)C[C@H]1c1ccc(F)cc1` [Example 8, N—((S)-6-(((1R,2S)-2-(4-fluorophenyl)-1-methylcyclopropyl)amino)-1-(4-(methylsulfonyl)piperazin-1-yl)-1-oxohexan-2-yl)benzamide], the “% at 30 min, MLM” value in data set [1] is “+ (+ is ≥20%)”; in data set [1] (numeric values of Table 2), 65%. On KDM1A (LSD1), this compound came in with a half-maximal inhibitory concentration (IC50) of more than 1000 nM.

`O=C(N[C@@H](CCCCN[C@@H]1C[C@H]1c1ccc(F)cc1)C(=O)N1CCCCC1)c1ccccc1` [Example 10, N—((S)-6-(((1R,2S)-2-(4-fluorophenyl)cyclopropyl)amino)-1-oxo-1-(piperidin-1-yl)hexan-2-yl)benzamide]: the “% at 30 min, MLM” value in data set [1] was “− (− is <20%)”. The IC50 against KDM1A (LSD1) was less than 1000 nM.

As for `O=C(N[C@@H](CCCCN[C@@H]1C[C@H]1c1ccc(F)cc1)C(=O)N1CCOCC1)c1ccccc1` [Example 11, N—((S)-6-(((1R,2S)-2-(4-fluorophenyl)cyclopropyl)amino)-1-morpholino-1-oxohexan-2-yl)benzamide], the “% at 30 min, MLM” value in data set [1] is on record as “+ (+ is ≥20%)”. The half-maximal inhibitory concentration (IC50) at KDM1A (LSD1) is less than 1000 nM.

As for `CN1CCN(C(=O)[C@H](CCCCN[C@@H]2C[C@H]2c2ccc(F)cc2)NC(=O)c2ccccc2)CC1` [Example 12, N—((S)-6-(((1R,2S)-2-(4-fluorophenyl)cyclopropyl)amino)-1-(4-methylpiperazin-1-yl)-1-oxohexan-2-yl)benzamide], the “% at 30 min, MLM” value in data set [1] was “+ (+ is ≥20%)”. Besides, the concentration for half-maximal inhibition (IC50) at KDM1A (LSD1) is less than 1000 nM.

As for `O=C(N[C@@H](CCCCN[C@@H]1C[C@H]1c1ccc(F)cc1)C(=O)N1CCCCC1)c1ccc(F)cc1` [Example 13, 4-fluoro-N—((S)-6-(((1R,2S)-2-(4-fluorophenyl)cyclopropyl)amino)-1-oxo-1-(piperidin-1-yl)hexan-2-yl)], the “% at 30 min, MLM” value in data set [1] was “− (− is <20%)”. The compound further yielded a 50% inhibitory concentration (IC50) against KDM1A (LSD1) of less than 1000 nM.

As to `O=C(N[C@@H](CCCCN[C@@H]1C[C@H]1c1ccc(F)cc1)C(=O)N1CCCCC1)c1ccc(C(F)(F)F)cc1` [Example 14, N—((S)-6-(((1R,2S)-2-(4-fluorophenyl)cyclopropyl)amino)-1-oxo-1-(piperidin-1-yl)hexan-2-yl)-4-(trifluoromethyl)benzamide], the “% at 30 min, MLM” value in data set [1] was “− (− is <20%)”. Besides, the IC50 at KDM1A (LSD1) was less than 1000 nM.

On to `O=C(N[C@@H](CCCCN[C@@H]1C[C@H]1c1ccc(F)cc1)C(=O)N1CCCCC1)c1ccc(-c2ccccc2)cc1` [Example 15, N—((S)-6-(((1R,2S)-2-(4-fluorophenyl)cyclopropyl)amino)-1-oxo-1-(piperidin-1-yl)hexan-2-yl)-[1,1′-biphenyl]-4-carboxamide], for which, in data set [1], the “% at 30 min, MLM” value was “− (− is <20%)”.

Regarding `O=C(N[C@@H](CCCCN[C@@H]1C[C@H]1c1ccc(F)cc1)C(=O)N1CCS(=O)(=O)CC1)c1ccccc1` [Example 16, N—((S)-1-(1,1-dioxidothiomorpholino)-6-(((1R,2S)-2-(4-fluorophenyl)cyclopropyl)amino)-1-oxohexan-2-yl)benzamide], the “% at 30 min, MLM” value in data set [1] is recorded as “+ (+ is ≥20%)”. The same compound displayed an IC50 at KDM1A (LSD1) of less than 1000 nM.

As to `O=C(N[C@@H](COCCN[C@@H]1C[C@H]1c1ccc(F)cc1)C(=O)N1CCOCC1)c1ccc(F)cc1` [Example 20, 4-fluoro-N—((S)-3-(2-(((1R,2S)-2-(4-fluorophenyl)cyclopropyl)amino)ethoxy)-1-morpholino-1-oxopropan-2-yl)benzamide], the “% at 30 min, MLM” value in data set [1] is on record as “− (− is <20%)”.

Take `O=C(CN[C@@H]1C[C@H]1c1ccc(F)cc1)NC[C@H](NC(=O)c1ccc(F)cc1)C(=O)N1CCOCC1` [Example 21, 4-fluoro-N—((S)-3-(2-(((1R,2S)-2-(4-fluorophenyl)cyclopropyl)amino)acetamido)-1-morpholino-1-oxopropan-2-yl)benzamide]: in data set [1], the “% at 30 min, MLM” value is “− (− is <20%)”.

In turn, `O=C(N[C@@H](CCCCN[C@@H]1C[C@H]1c1ccc(F)cc1)C(=O)N1CCCCC1)c1cnc[nH]1` [Example 23, N—((S)-6-((1R,2S)-2-(4-fluorophenyl)cyclopropylamino)-1-oxo-1-(piperidin-1-yl)hexan-2-yl)-1H-imidazole-5-carboxamide] yielded an IC50 against KDM1A (LSD1) of less than 1000 nM.

Regarding `CN1CCN(C(=O)[C@H](CCCC(=O)N[C@@H]2C[C@H]2c2ccc(F)cc2)NC(=O)c2ccc(F)cc2)CC1` [Example 24, 4-fluoro-N—((S)-6-((1R,2S)-2-(4-fluorophenyl)cyclopropylamino)-1-(4-methylpiperazin-1-yl)-1,6-dioxohexan-2-yl)benzamide], the “% at 30 min, MLM” value in data set [1] is on record as “+ (+ is ≥20%)”.

`COc1ccc([C@@H]2C[C@H]2NC(=O)COC[C@H](NC(=O)c2ccc(F)cc2)C(=O)N2CCOCC2)cc1` [Example 25, 4-fluoro-N—((S)-3-(2-((1R,2S)-2-(4-methoxyphenyl)cyclopropylamino)-2-oxoethoxy)-1-morpholino-1-oxopropan-2-yl)benzamide]: the “% at 30 min, MLM” value in data set [1] is “+ (+ is ≥20%)”.

In the case of `COc1ccc([C@@H]2C[C@H]2NC(=O)CCC[C@H](NC(=O)c2ccc(F)cc2)C(=O)N2CCN(C)CC2)cc1` [Example 26, 4-fluoro-N—((S)-6-((1R,2S)-2-(4-methoxyphenyl)cyclopropylamino)-1-(4-methylpiperazin-1-yl)-1,6-dioxohexan-2-yl)benzamide], the “% at 30 min, MLM” value in data set [1] is given as “+ (+ is ≥20%)”.

Consider `CS(=O)(=O)N1CCN(C(=O)[C@H](CCCN[C@@H]2C[C@H]2c2ccc(F)cc2)NC(=O)c2ccc(F)cc2)CC1` [Example 29, 4-fluoro-N-[(2S)-5-[[(1R,2S)-2-(4-fluorophenyl)cyclopropyl]amino]-1-(4-methanesulfonylpiperazin-1-yl)-1-oxopentan-2-yl]benzamide], for which the “% at 30 min, MLM” value in data set [1] was “− (− is <20%)”.
